From paper PMC2362044, “A potent nonporphyrin class of photodynamic therapeutic agent: cellular localisation, cytotoxic potential and influence of hypoxia” (British Journal of Cancer, 2005)
Read-outs that look alike come from different tables or passages of the source.

What was measured:
[1] = tested on: A2780cp70 cells; assay: Colorimetric survival (MTT) assay after photo-irradiation, normoxia; type: cell-based; conditions: Homo sapiens, A2780/CP70, A2780cp70, 3 h incubation
Procedure: (§1) All cell lines unless otherwise stated were obtained from the American Type Culture Collection. HeLa, MRC5, HT-1080, MDA-MB-231, MCF-7 and T47-D cells were cultured in minimum essential medium (MEM) supplemented with 10% (v v^−1) foetal calf serum (FCS), 1% (v v^−1) non-essential amino acids, 50 U ml^−1 penicillin, 50 μg ml^−1 streptomycin, 20 mM HEPES and 1% (v v^−1) L-glutamine (Gibco-BRL). SW480, SW620 (obtained from Professor D Croke, Royal College of Surgeons, Dublin), A2780 and A2780cp70 cells (Obtained from Professor R Brown, Cancer Research UK, Beatson Laboratories, Glasgow) were cultured in RPMI-1640 medium plus the above-mentioned supplements. All cells were maintained in 5% CO2 (v v^−1) and 21% O2 (v v^−1) at 37°C unless otherwise stated.
(§2) Cells were seeded in 96-well flat-bottomed microtitre plates (5000 cells well^−1) and incubated at 37°C in a 5% CO2 incubator for 24 h. Cells were then incubated with varying concentrations of photosensitiser (1 × 10^−9 to 1 × 10^−4 M) in the dark for 3 h at 37°C. The ADPM compound-laden medium was then removed, the cells were washed with PBS and fresh culture medium was added to each well. This was followed by light irradiation with a broad-spectrum red light source (600–750 nm) via a Waldmann PDT1200L light delivery system. For this study, fluences (light exposures) of either 8 or 16 J cm^−2, at a dose rate of 80 mW cm^−2, were used. Following irradiation, the cells were incubated for a further 48 h before being assessed for cell viability by a standard MTT assay (Sigma). The subsequent colour change produced by viable cells was quantified using a plate reader (VICTOR^2 1420 multilabel HTS counter, Wallac). […] The dark toxicity of each compound was also assessed.
(§3) Prism ([…]) was used to graph the data obtained from the MTT assays and the uptake/clearance experiments. This program allows nonlinear regression analysis and the generation of sigmoidal dose–response curves. Prism also automatically calculates EC50 values. Statistical analysis was performed using the ANOVA test (Prism). Significant differences were detected using the Bonferroni multiple comparison test. P-values <0.05 were considered statistically significant.

[2] = tested on: HT-1080 cells; assay: as above; type: cell-based; conditions: Homo sapiens, HT-1080, 3 h incubation
Procedure: as §1, §2, §3

[3] = tested on: HeLa cells; assay: as above; type: cell-based; conditions: Homo sapiens, normoxia 21% oxygen, 3 h incubation
Procedure: as §1, §2, §3

[4] = tested on: MDA-MB-231 cells; assay: as above; type: cell-based; conditions: Homo sapiens, MDA-MB-231, 3 h incubation
Procedure: as §1, §2, §3

[5] = tested on: SW480 cells; assay: as above; type: cell-based; conditions: Homo sapiens, SW480, 3 h incubation
Procedure: as §1, §2, §3

[6] = tested on: T47-D cells; assay: as above; type: cell-based; conditions: Homo sapiens, T47D, 3 h incubation
Procedure: as §1, §2, §3

[7] = tested on: HeLa cells; assay: Cellular uptake and clearance (fluorescence microscopy); type: cell-based, human
Procedure: (§4) Cells were seeded at 30 000 cells well^−1 in chamber slides and allowed to adhere for 24 h. For the uptake studies, ADPM01 (1 × 10^−5 M) was then added to each chamber and incubated at 37°C in the dark. Following appropriate incubation periods (5 min–6 h), the cells were washed four times with media to remove all free photosensitisers. The cells were then fixed with 3.7% formaldehyde/PBS for 15 min at 37°C, after which the cells were washed twice with PBS. Mounting fluid (Vectashield) and a coverslip were then placed on each slide. […] In this case, the cells were fixed at various time points (15 min – 24 h) after removal of the drug. The slides were then viewed using an Axio fluorescent microscope (Zeiss). A DAPI filter (Band pass 356) was used to accurately count the number of cells in each field of view and a rhodamine filter (Long pass 590) was used to quantify fluorescence from ADPM01. LabWorks version 4.0 (Bioimaging Systems) was used to calculate the average fluorescence intensity of ADPM01 per cell.
as §3

[8] = tested on: MRC5 cells; assay: as above; type: cell-based, human; conditions: MRC-5, 1 × 10^−5 M for 3 h, then drug removed
Procedure: as §4, §3

[9] = tested on: HeLa cells; assay: Subcellular localisation by confocal laser-scanning microscopy; type: cell-based, human; conditions: 1 × 10^−5 M, 1 h
Procedure: Cells, grown on eight-well chamber slides (Nunc), were incubated in the dark at 37°C with 1 × 10^−5 M ADPM01 for 1 h. The medium was removed and the cells then treated with 250 nM MitoTracker Green (Molecular Probes) or 100 nM ER Tracker Blue (Molecular Probes) for 25 min. Prior to visualisation, excess probe was washed off by rinsing in PBS four times and cells were fixed in 3.7% formaldehyde/PBS. Cells were mounted as above and image analysis was performed using a LSM510 META confocal laser-scanning microscope (Zeiss) equipped with an × 40 numerical aperture 1.0 objective, with a pinhole of 100 μm in diameter being used to capture each image at a resolution of 512 × 512 pixels. MitoTracker Green was excited by a 488 nm argon laser and ER Tracker Blue was excited by a UV laser (364 nm), while ADPM01 was excited by a 543 nm helium neon laser. For simultaneous detection of MitoTracker Green and ADPM01, a 560 nm long pass filter was used in channel 1 (red) for ADPM01, while a 505–530 nm band pass filter was used in channel 2 (green) for MitoTracker Green. For dual detection of ER Tracker Blue and ADPM01, a long pass filter of 560 nm was used in channel 1 (red) for ADPM01 and a 385–470 nm band pass filter was used in channel 2 (blue) for ER Tracker Blue. […]

[10] = 0 J cm^−2, read-out: EC50 (M) (dark)
[11] = 8 J cm^−2, read-out: EC50 (M) (8 J cm^−2)
[12] = 16 J cm^−2, read-out: EC50 (M) (16 J cm^−2)

SMILES | EC50 [1, 11] [M] | EC50 [1, 12] [M] | EC50 [2, 11] [M] | EC50 [2, 12] [M] | EC50 [3, 10] [M] | EC50 [3, 11] [M] | EC50 [3, 12] [M] | EC50 [4, 11] [M] | EC50 [4, 12] [M] | EC50 [5, 11] [M] | EC50 [5, 12] [M] | EC50 [6, 11] [M] | EC50 [6, 12] [M] | also measured
F[B-]1(F)n2c(-c3ccccc3)cc(-c3ccccc3)c2N=C2C(c3ccccc3)=CC(c3ccccc3)=[N+]21 [ADPM01] | 6.8e-06 | 2.8e-06 | 3.4e-05 | 2.2e-05 | 2.7e-05 | 2.8e-06 | 9.2e-07 | 5.6e-06 | 2.6e-07 | 7.6e-06 | 8e-07 | 5.6e-06 | 5.3e-06 | EC50 [1, 10]: > 0.0001 M; EC50 [2, 10]: > 0.0001 M; EC50 [4, 10]: 1.2e-05 M; EC50 [5, 10]: > 0.0001 M; EC50 [6, 10]: > 0.0001 M; retention at 3 h post-withdrawal (clearance) ([7]; 1 × 10^−5 M for 3 h, then drug removed): 42%; cellular uptake, accumulated by 3 h ([7]; 1 × 10^−5 M, 37°C in the dark, 6 h period): > 90%; retention 3 h post-withdrawal (clearance) [8]: 74%; co-localisation with endoplasmic reticulum (ER Tracker Blue) [9]: more striking co-localisation
COc1ccc(C2=[N+]3C(=Nc4c(-c5ccccc5)c(Br)c(-c5ccc(OC)cc5)n4[B-]3(F)F)C(c3ccccc3)=C2Br)cc1 [ADPM06] | 6.2e-08 | 2.7e-08 | 7.9e-08 | 3.7e-08 | > 0.0001 | 6.3e-08 | 4.1e-08 | 1.4e-07 | 7.5e-08 | 5.4e-06 | 4.2e-08 | 1.6e-06 | 6.3e-07 | –
